Results as given in ChEMBL document CHEMBL1124835, “Structure-activity relationships of antineoplastic agents in multidrug resistance” (J Med Chem, 1990).
Numbered stars: 1 amine (or outer) side, 2 acyl side, 3 side chain; on linkers, the order of the positions; unused ones are H or OH. Bridge positions count the residues as written; N and C are the ends. Square brackets hold non-standard residues; d marks the D form. Peptide text beside a SMILES is read from it. I, II: the chains in the order shown. Actinocin(1to9) = Cc1c2oc3c(C)ccc(C(=O)[*:2])c3nc-2c(C(=O)[*:1])c(N)c1=O; NMeV = CN[C@H](C(=O)O)C(C)C; Sar = CNCC(=O)O

Legend:
[1] = test system: L1210
Description: Cross resistance profile versus L1210/R71 cells.

[2] = physchem; settings: octanol/water, pH 7.4
[3] = test system: CHRC5 cell line; type: functional, Cricetulus griseus
Description: Effect on collateral sensitivity of CHRC5 cells to local anesthetics/steroids.

[4] = test system: CHO
Description: Effect on cross resistance of CHO cells resistant to colchicine (CHRC5)

[5] = test system: CCRF-CEM; test: Effect on cross resistance of CCRF-CEM cells resistant to vincristine.; type: functional, Homo sapiens
[6] = test system: CHO; test: Effect on cross resistance of chinese hamster ovary CHO cells resistant to colchicine (CHRC5); type: functional, Cricetulus griseus
[7] = test system: L1210; test: Cross resistance to the compound expressed as log of ratio of molar concentration of drug inducing 50% inhibition of growth in murine leukemia L1210/R71 and L1210/0 cells; type: functional, Mus musculus
[8] = test system: CHO; test: Cross resistance of chinese hamster cells resistant to actinomycin D as log of ratio of molar concentration of compound inducing 50% inhibition of growth in resistant and sensitive cells; type: functional, Cricetulus griseus
[9] = test system: CHRC5 cell line
Description: Collateral sensitivity of CHRC5 cells to local anesthetics/steroids as log of ratio of molar concentration of drug inducing 50% growth inhibition in CHO AUXB1 cells to that of CHRC5 cells

[10] = octanol/water, pH 7.4

Compound	Log CR [1]	logD [2]	other results
CC1(C)N=C(N)N=C(N)N1c1cccc(COc2cccc(-c3ccccc3)c2)c1	1.22	0.69	
CCCCCCCCCCCCc1cccc(N2C(N)=NC(N)=NC2(C)C)c1	0.52	3.41	
CC1(C)N=C(N)N=C(N)N1c1cccc(Br)c1	2.06	-2.14	
CC1(C)N=C(N)N=C(N)N1c1cccc(O)c1	1.86	-3.67	
O=[N+]([O-])c1cccc2ccc[n+]([O-])c12		1.02	
CC(=O)[C@H]1CC[C@H]2[C@@H]3CCC4CC(=O)CC[C@]4(C)[C@H]3CC[C@]12C (stereo partly specified)		3.99	Log sensitivity [3]: 1
CC1(C)N=C(N)N=C(N)N1c1ccccc1	2.18	-3	
CC(=O)c1cccc(N2C(N)=NC(N)=NC2(C)C)c1	2.2	-3.55	
N[C@@H](Cc1ccc(N(CCCl)CCCl)cc1)C(=O)O		-0.52	Log CR [4]: 1.18
C[N+]1(C)CCC(OC(=O)C(c2ccccc2)c2ccccc2)CC1.[I-] [4-DAMP]	1.63	2.64	
Nc1ncn([C@@H]2O[C@H](CO)[C@@H](O)[C@H]2O)c(=O)n1 [AZACITIDINE]	1.54	-2.17	
O=c1[nH]c(=O)n([C@H]2C[C@H](O)[C@@H](CO)O2)cc1Br [BROXURIDINE]		-0.29	
O=C(O)CCCc1ccc(N(CCCl)CCCl)cc1 [CHLORAMBUCIL]		1.47	Log CR [4]: 0.3
COc1cc2c(c(OC)c1OC)-c1ccc(OC)c(=O)cc1[C@@H](NC(C)=O)CC2 [COLCHICINE]		1.03	Log CR [5]: 1.08; Log CR [4]: 2.26
O=P1(N(CCCl)CCCl)NCCCO1 (stereo unspecified) [CYCLOPHOSPHAMIDE ANHYDROUS]		0.63	Log sensitivity [3]: 0.52
C=C1[C@@H](C)[C@H]2[C@H](Cc3ccccc3)NC(=O)[C@]23OC(=O)/C=C/[C@H](O)CCC[C@@H](C)C/C=C/[C@H]3[C@@H]1O [CYTOCHALASIN B]		3.37	Log CR [4]: 1.04
Cc1c2oc3c(C)ccc(C(=O)N[C@@H]4C(=O)N[C@H](C(C)C)C(=O)N5CCC[C@H]5C(=O)N(C)CC(=O)N(C)[C@@H](C(C)C)C(=O)O[C@@H]4C)c3nc-2c(C(=O)N[C@@H]2C(=O)N[C@H](C(C)C)C(=O)N3CCC[C@H]3C(=O)N(C)CC(=O)N(C)[C@@H](C(C)C)C(=O)O[C@@H]2C)c(N)c1=O [DACTINOMYCIN] (I: T[dV]P[Sar][NMeV] / II: T[dV]P[Sar][NMeV]; ester I:1-I:C, II:1-II:C; linker I:N-II:N via Actinocin(1to9))	0.12	3.21	
COc1cccc2c1C(=O)c1c(O)c3c(c(O)c1C2=O)C[C@@](O)(C(C)=O)C[C@@H]3O[C@H]1C[C@H](N)[C@H](O)[C@H](C)O1 [DAUNORUBICIN]			Log CR [5]: 1.2
CN[C@H]1CCc2cc(OC)c(OC)c(OC)c2-c2ccc(OC)c(=O)cc21 [DEMECOLCINE]		1.37	Log CR [4]: 1.2
C[C@]12CC[C@H]3[C@@H](CCC4=CC(=O)CC[C@@]43C)[C@@H]1CC[C@@H]2C(=O)CO [DESOXYCORTICOSTERONE]		3.08	Log sensitivity [3]: 1
COc1cccc2c1C(=O)c1c(O)c3c(c(O)c1C2=O)C[C@@](O)(C(=O)CO)C[C@@H]3O[C@H]1C[C@H](N)[C@H](O)[C@H](C)O1 [DOXORUBICIN]		0.1	Log CR [5]: 1.46; Log CR [4]: 1.4
CC[C@H]1CN2CCc3cc(OC)c(OC)cc3[C@@H]2C[C@@H]1C[C@H]1NCCc2cc(OC)c(OC)cc21 [EMETINE]		3.24	Log CR [6]: 1.46
CC[C@H]1OC(=O)[C@H](C)[C@@H](O[C@H]2C[C@@](C)(OC)[C@@H](O)[C@H](C)O2)[C@H](C)[C@@H](O[C@@H]2O[C@H](C)C[C@H](N(C)C)[C@H]2O)[C@](C)(O)C[C@@H](C)C(=O)[C@H](C)[C@@H](O)[C@]1(C)O [ERYTHROMYCIN]		1.26	Log CR [4]: 0.7
C[n+]1c2cc(N)ccc2cc2ccc(N)cc21.[Cl-] [EUFLAVINE]		1.6	Log CR [6]: 0.84

Compound	Log CR [1]	logD [2]	other results
O=c1[nH]cc(F)c(=O)[nH]1 [FLUOROURACIL]	-0.04	-0.89	Log CR [4]: 0
Nc1n[nH]c(N)n1 [GUANAZOLE]	0.08	-1.61	
CC[n+]1c(-c2ccccc2)c2cc(N)ccc2c2ccc(N)cc21.[Br-] [HOMIDIUM BROMIDE]		1.15	Log CR [4]: 1.04
NC(=O)NO [HYDROXYUREA]	0.3	-1.27	
COc1cc2cc(c1Cl)N(C)C(=O)C[C@H](OC(=O)[C@H](C)N(C)C(C)=O)[C@]1(C)O[C@H]1[C@H](C)[C@@H]1C[C@@](O)(NC(=O)O1)[C@H](OC)/C=C/C=C(\C)C2 [MAYTANSINE]	1.23		Log CR [5]: 2.85
Sc1ncnc2nc[nH]c12 [MERCAPTOPURINE ANHYDROUS]		0.01	Log CR [7]: 0.6; Log CR [8]: -0.3
Cc1nc(N)nc(N)c1-c1ccc(Cl)c(Cl)c1 [METOPRINE]		2.56	Log CR [7]: 1.7
COc1ccc(OC)c(Cc2cnc3nc(N)nc(N)c3c2C)c1 [PIRITREXIM]		1.77	Log CR [7]: 1.89
CO[C@H](C(=O)[C@@H](O)[C@@H](C)O)[C@@H]1Cc2cc3cc(O[C@H]4C[C@@H](O[C@H]5C[C@@H](O)[C@H](O)[C@@H](C)O5)[C@H](O)[C@@H](C)O4)c(C)c(O)c3c(O)c2C(=O)[C@H]1O[C@H]1C[C@@H](O[C@H]2C[C@@H](O[C@H]3C[C@](C)(O)[C@H](O)[C@@H](C)O3)[C@@H](O)[C@@H](C)O2)[C@H](O)[C@@H](C)O1 [PLICAMYCIN]		-0.25	
CO[C@H](C(=O)[C@@H](O)[C@@H](C)O)[C@@H]1Cc2cc3cc(O[C@H]4C[C@@H](O[C@@H]5C[C@@H](O)[C@H](O)[C@@H](C)O5)[C@H](O)[C@@H](C)O4)c(C)c(O)c3c(O)c2C(=O)[C@H]1O[C@H]1C[C@@H](O[C@@H]2C[C@@H](O)[C@@H](O[C@@H]3C[C@](C)(O)[C@H](O)[C@@H](C)O3)[C@@H](C)O2)[C@H](O)[C@@H](C)O1 [PLICAMYCIN]	0.66		
CCN(CC)CCOC(=O)c1ccc(N)cc1 [PROCAINE]		0.3	Log sensitivity [9]: 0.4
Nc1ccc2cc3ccc(N)cc3nc2c1 [PROFLAVINE]		1.1	Log CR [6]: 0.6; Log CR [8]: 0.46
CC(C)NCC(O)COc1cccc2ccccc12 (stereo unspecified) [PROPRANOLOL]			Log sensitivity [9]: 0.7
COc1ccc(C[C@H](N)C(=O)N[C@H]2[C@@H](O)[C@H](n3cnc4c(N(C)C)ncnc43)O[C@@H]2CO)cc1 [PUROMYCIN]	1.82	0.86	Log CR [4]: 2.02
CC/C(=C(\c1ccccc1)c1ccc(OCCN(C)C)cc1)c1ccccc1 [TAMOXIFEN]	0.59		
CCCC[N+](CCCC)(CCCC)CCCC.[Br-] [TETRABUTYLAMMONIUM BROMIDE]		-3	Log sensitivity [3]: -0.84
S=P(N1CC1)(N1CC1)N1CC1 [THIOTEPA]		0.53	Log CR [4]: 0
COc1cc(NCc2ccc3nc(N)nc(N)c3c2C)cc(OC)c1OC [TRIMETREXATE]		0.84	Log CR [7]: 1.75
CC(C)[C@@H]1NC(=O)[C@H](C)OC(=O)[C@@H](C(C)C)NC(=O)[C@@H](C(C)C)OC(=O)[C@H](C(C)C)NC(=O)[C@H](C)OC(=O)[C@@H](C(C)C)NC(=O)[C@@H](C(C)C)OC(=O)[C@H](C(C)C)NC(=O)[C@H](C)OC(=O)[C@@H](C(C)C)NC(=O)[C@@H](C(C)C)OC1=O [VALINOMYCIN]	0.59	3.24	
CC[C@]1(O)C[C@@H]2CN(CCc3c([nH]c4ccccc34)[C@@](C(=O)OC)(c3cc4c(cc3OC)N(C)[C@H]3[C@@](O)(C(=O)OC)[C@H](OC(C)=O)[C@]5(CC)C=CCN6CC[C@]43[C@@H]65)C2)C1 [VINBLASTINE]			Log CR [5]: 1.28
CC[C@]1(O)C[C@H]2CN(CCc3c([nH]c4ccccc34)[C@@](C(=O)OC)(c3cc4c(cc3OC)N(C=O)[C@H]3[C@@](O)(C(=O)OC)[C@H](OC(C)=O)[C@]5(CC)C=CCN6CC[C@]43[C@@H]65)C2)C1 [VINCRISTINE]		2.57	Log CR [5]: 2.76
CC[C@]1(O)C[C@@H]2CN(CCc3c([nH]c4ccccc34)[C@@](C(=O)OC)(c3cc4c(cc3OC)N(C)[C@H]3[C@@](O)(C(N)=O)[C@H](O)[C@]5(CC)C=CCN6CC[C@]43[C@@H]65)C2)C1 [VINDESINE]		0.67	Log CR [5]: 3
BLEOMYCIN			logD [10]: -2.38
